# Measurements: patent US20250327032A1, “AGENT FOR AVOIDING IMMUNE RESPONSE OF TRANSGENIC CELLS” (HYPERION DRUG DISCOVERY CO., LTD., priority 2021, published 2025)
# What was measured:
# Format in all cases: cell-based
# [1] = test system: human mesenchymal stem cells; experiment: Introduction of TERT mRNA by lipofection, number of viable cells; conditions: JSH-23 1 μM, 10 pg/cell
# Method: (§1) Human mesenchymal stem cells were seeded in a 6-well plate to be about 10,000 cells/cm^2. Human myoblasts were seeded in another 6-well plate to be about 20,000 cells/cm^2. As a culture solution, a basal medium for each cell supplemented with 1 μM of JSH-23 was used. As a control, a basal medium for each cell supplemented with 0.1% (v/v) DMSO instead of JSH-23 was used as a culture solution.
# (§2) A lipofection solution was prepared by adding Lipofectamine RNAiMAX and TERT mRNA to OptiMEM. As the TERT mRNA, that containing uridine, or that containing pseudouridine instead of uridine was used. It was prepared so that the amount of mRNA was 10 pg/cell for human mesenchymal stem cells and 5 pg/cell for human myoblasts. The prepared lipofection solution was mixed well according to the manufacturer's recommended protocol and allowed to stand at room temperature for about 15 minutes.
# (§3) Next, each lipofection solution was added to the plate seeded with human mesenchymal stem cells or human myoblasts, and cultured in a CO2 incubator at 37° C. for about 1 day (18 hours) (human mesenchymal stem cells) or for 2 days (42 hours) (human myoblasts). After culturing, all the culture solution comprising the lipofection solution was removed and replaced with a new culture solution having the same composition as before the addition of the lipofection solution.
# (§4) After another 6 hours, the above lipofection solution was newly prepared, added again to the plate seeded with human mesenchymal stem cells or human myoblasts, and cultured in a CO2 incubator at 37° C. for about 1 day (18 hours) (mesenchymal stem cells) or about 2 days (42 hours) (human myoblasts). These steps were repeated so that the introduction of genes was performed a total of 4 times.
# (§5) Twenty-four hours after the final introduction of genes, the cells were detached with a cell detachment solution, centrifuged at 600×g for 5 minutes using a centrifuge, to collect the cells. The collected cells were counted using a hemocytometer.
# human myoblasts = experiment: as above; conditions: JSH-23 1 μM, 5 pg/cell
# Method: as §1, §2, §3, §4, §5
# TNF-α = TNF-α expression level (qPCR) after introduction of GFP mRNA containing pseudouridine; conditions: human mesenchymal stem cells; JSH-23 10 μM; GFP mRNA containing pseudouridine 10 pg/cell; compared to pseudouridine only
# Method: Reduction of TNF-α expression level using JSH-23 in introduction of GFP mRNA into human mesenchymal stem cells (hMSCs) Human mesenchymal stem cells were seeded in a 6-well plate to be about 10,000 cells/cm^2. As a culture solution, αMEM (+10% serum) supplemented with 10 μM of JSH-23 was used. As a control, αMEM (+10% serum) supplemented with 0.1% (v/v) DMSO instead of JSH-23 was used as a culture solution.
# A lipofection solution was prepared by adding Lipofectamine RNAiMAX and fluorescent protein GFP mRNA to OptiMEM. The GFP mRNA containing pseudouridine instead of uridine was used. It was prepared so that the amount of mRNA was 10 pg/cell. The prepared lipofection solution was mixed well according to the manufacturer's recommended protocol and allowed to stand at room temperature for about 15 minutes.
# Next, each lipofection solution was added to the plate seeded with human mesenchymal stem cells or human myoblasts, and cultured in a CO2 incubator at 37° C. for about 1 day (18 hours). […]
# cDNA was synthesized from the purified RNA using SuperScript™ III Reverse Transcriptase according to the manufacturer's protocol. qPCR was performed using synthesized cDNA and PCR primers and PowerTrack™ SYBR Green Master Mix. The measured Ct value of TNF-α was normalized with the Ct value of β-actin, a housekeeping gene.
# [2] = test system: Human leukemia T cells (Jurkat E6.1); experiment: Introduction of GFP-tagged CAR-T plasmid by lipofection, yield of GFP-positive cells; conditions: JSH-23 0.1 μM; GFP-tagged CAR-T plasmid 1 pg/cell
# Method: Human leukemia T cells (Jurkat E6.1) were seeded in a 6-well plate to be about 10,000 cells/cm^2. As a culture solution, RPMI1640 medium comprising 10% bovine serum was used. To this, 0.1 μM of JSH-23 was added, or for comparison, 0.1% (v/v) DMSO instead of JSH-23 was added and used.
# A lipofection solution was prepared by adding Lipofectamine 2000 and GFP-tagged CAR-T plasmid to OptiMEM. The amount of CAR-T plasmid was prepared to be 1 pg/cell. The prepared lipofection solution was mixed well according to the manufacturer's recommended protocol and allowed to stand at room temperature for about 15 minutes.
# Next, the lipofection solution was added to the plate seeded with human leukemia T cells, and cultured in a CO2 incubator at 37° C. for about 1 day (18 hours). […]
# Twenty-four hours after the final introduction of genes, the cells were collected and centrifuged at 800 rpm for 5 minutes using a centrifuge, to collect the cells. The collected cells were counted using a hemocytometer. Furthermore, the GFP-positive percentage of the collected cells was measured using a flow cytometer. The yield of the number of GFP-positive cells was calculated from the number of cells counted and the GFP-positive percentage.
# [3] = TERT mRNA containing pseudouridine instead of uridine
smiles,measurement,setting,value
Cc1ccc(NCCCc2ccccc2)c(N)c1 [JSH-23],yield (number of viable cells) compared to the control (control set to 1),[1]; [3],≥ 1.3 times
same,yield (number of viable cells) compared to the control (control set to 1),[1]; TERT mRNA containing uridine,≥ 1.5 times
same,yield (number of viable cells) compared to the control (control set to 1),human myoblasts; [3],≥ 5 times
same,yield (number of viable cells) compared to the control (control set to 1),human myoblasts; TERT mRNA containing uridine,≥ 7 times
same,expression level of TNF-α (normalized with β-actin),TNF-α,further reduced
same,number of GFP-positive cells compared to the control (control set to 1),[2],≥ 2 times
